Literature values, collected in patent US20230225964A1, “MICROSTIRRING DEVICES AND TECHNIQUES FOR ENHANCING BIOAVAILABILITY OF ORALLY ADMINISTERED DRUGS” (The Regents of the University of California, priority 2022, published 2023).
Values after ≈ are worked out from the molar mass of the structure shown.

In the case of `N[C@@H](Cc1ccc(O)c(O)c1)C(=O)O` [L-Dopa, levodopa], the solubility in water is given as 66 mg/mL (≈ 335 mM).
